Test results from ChEMBL document CHEMBL1133457 (J Med Chem, 2000).

Columns and labels:
[1] = molecular target: T1, Prostaglandin G/H synthase 2 (Homo sapiens, UniProt P35354)
T1 sequence (P35354 whole entry): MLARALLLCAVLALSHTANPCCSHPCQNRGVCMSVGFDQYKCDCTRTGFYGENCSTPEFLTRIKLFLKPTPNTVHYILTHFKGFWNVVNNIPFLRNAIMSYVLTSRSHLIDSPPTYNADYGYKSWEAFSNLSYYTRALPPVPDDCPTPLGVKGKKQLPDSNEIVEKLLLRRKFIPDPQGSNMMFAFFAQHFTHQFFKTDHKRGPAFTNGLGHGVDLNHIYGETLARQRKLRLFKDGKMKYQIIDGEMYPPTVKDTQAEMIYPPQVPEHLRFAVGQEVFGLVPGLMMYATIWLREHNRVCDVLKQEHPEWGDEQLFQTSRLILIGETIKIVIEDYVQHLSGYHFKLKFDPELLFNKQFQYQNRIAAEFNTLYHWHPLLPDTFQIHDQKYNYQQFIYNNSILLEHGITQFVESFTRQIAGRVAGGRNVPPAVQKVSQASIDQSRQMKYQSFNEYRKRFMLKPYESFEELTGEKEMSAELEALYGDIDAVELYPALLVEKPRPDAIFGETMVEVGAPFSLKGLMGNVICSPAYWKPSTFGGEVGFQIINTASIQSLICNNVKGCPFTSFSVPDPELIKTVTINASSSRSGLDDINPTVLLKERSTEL

[2] = molecular target: T2, Prostaglandin G/H synthase 1 (Ovis aries, UniProt P05979)
T2 sequence (P05979 whole entry): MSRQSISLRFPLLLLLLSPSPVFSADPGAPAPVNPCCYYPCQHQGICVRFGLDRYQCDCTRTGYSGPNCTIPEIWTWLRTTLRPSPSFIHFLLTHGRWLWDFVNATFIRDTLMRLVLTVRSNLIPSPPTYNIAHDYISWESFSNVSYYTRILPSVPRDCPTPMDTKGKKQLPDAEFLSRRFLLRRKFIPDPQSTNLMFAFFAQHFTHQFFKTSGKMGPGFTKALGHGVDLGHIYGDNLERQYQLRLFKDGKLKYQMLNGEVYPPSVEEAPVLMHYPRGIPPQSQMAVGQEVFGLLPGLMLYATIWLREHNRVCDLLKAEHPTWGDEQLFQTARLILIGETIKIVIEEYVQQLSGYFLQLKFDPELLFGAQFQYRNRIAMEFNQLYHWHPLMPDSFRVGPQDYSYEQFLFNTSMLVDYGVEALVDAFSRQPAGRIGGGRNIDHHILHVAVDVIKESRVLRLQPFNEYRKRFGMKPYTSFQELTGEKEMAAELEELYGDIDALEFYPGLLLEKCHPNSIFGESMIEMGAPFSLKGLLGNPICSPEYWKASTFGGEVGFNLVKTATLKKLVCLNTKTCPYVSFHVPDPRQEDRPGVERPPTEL

Structure (SMILES)	IC50 [1]	IC50 [2]
COC(=O)[C@@H](C)NC(=O)Cc1c(C)n(C(=O)c2ccc(Cl)cc2)c2ccc(OC)cc12	0.4 µM	
COc1ccc2c(c1)c(CC(=O)Nc1cccnc1Cl)c(C)n2C(=O)c1ccc(Cl)cc1	0.05 µM	45 µM
COc1ccc2c(c1)c(CC(=O)Nc1ccc(C(N)=O)cc1)c(C)n2C(=O)c1ccc(Cl)cc1	0.14 µM	> 66 µM
COc1ccc2c(c1)c(CC(=O)NOCc1ccccc1)c(C)n2C(=O)c1ccc(Cl)cc1	0.05 µM	0.06 µM
COc1ccc2c(c1)c(CC(=O)NCCOC(=O)/C=C/c1ccc(N(C)C)cc1)c(C)n2C(=O)c1ccc(Cl)cc1		> 66 µM
COc1ccc2c(c1)c(CC(=O)OCCc1ccccc1)c(C)n2C(=O)c1ccc(Cl)cc1	0.04 µM	
COc1ccc2c(c1)c(CC(=O)NNCc1ccccc1)c(C)n2C(=O)c1ccc(Cl)cc1	2.5 µM	> 66 µM
COc1ccc2c(c1)c(CC(=O)Oc1cccc3ccccc13)c(C)n2C(=O)c1ccc(Cl)cc1	5 µM	> 66 µM
COc1ccc2c(c1)c(CC(=O)NCCc1ccccc1)cn2C(=O)c1ccc(Cl)cc1	> 66 µM	> 66 µM
COc1ccc2c(c1)c(CC(=O)Nc1cc(C)c(C(=O)Nc3ccccc3)cc1OC)c(C)n2C(=O)c1ccc(Cl)cc1	0.6 µM	17 µM
COc1ccc2c(c1)c(CC(=O)N(C)C)c(C)n2C(=O)c1ccc(Cl)cc1		> 66 µM
COc1ccc2c(c1)c(CC(=O)Nc1cncc(Cl)c1)c(C)n2C(=O)c1ccc(Cl)cc1	0.047 µM	> 66 µM
COc1ccc2c(c1)c(CC(=O)N1CCOCC1)c(C)n2C(=O)c1ccc(Cl)cc1 [INDOMETHACIN MORPHOLINYLAMIDE]	> 33 µM	> 66 µM

Continued, values first:

IC50 [1]	IC50 [2]	Structure (SMILES)
0.06 µM	4 µM	COc1ccc2c(c1)c(CC(=O)NOCc1ccc([N+](=O)[O-])cc1)c(C)n2C(=O)c1ccc(Cl)cc1
25 µM	> 66 µM	CCN(CC)C(=O)Cc1c(C)n(C(=O)c2ccc(Cl)cc2)c2ccc(OC)cc12
> 1 µM	> 66 µM	COc1ccc2c(c1)c(CC(=O)Nc1cc(OC)c(OC)c(OC)c1)c(C)n2C(=O)c1ccc(Cl)cc1
0.045 µM	> 66 µM	COc1ccc2c(c1)c(CC(=O)OCCNC(=O)OC(C)(C)C)c(C)n2C(=O)c1ccc(Cl)cc1
> 66 µM	> 66 µM	COc1ccc2c(c1)c(CC(=O)OCCc1ccccc1)cn2C(=O)c1ccc(Cl)cc1
	> 66 µM	COc1ccc2c(c1)c(CC(=O)Nc1ncc(C)s1)c(C)n2C(=O)c1ccc(Cl)cc1
